From the supplement of paper PMC10307832

Key:
Assay in all cases: relative viability (nuclei count vs DMSO), 5 days (fraction); higher = more cells survive
Kobe2602 + Pictilisib = compound: C1=CC(=CC=C1NC(=S)NNC2=C(C=C(C=C2[N+](=O)[O-])C(F)(F)F)[N+](=O)[O-])F [Kobe2602] + CS(=O)(=O)N1CCN(Cc2cc3nc(-c4cccc5[nH]ncc45)nc(N4CCOCC4)c3s2)CC1 [Pictilisib] (partner 1 µM)
Method in brief: (§1)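 Dosing by pin tool came one day after lung cancer cell lines were seeded in 1536-well plates, using either one drug or a fixed anchor-drug dose plus five library-drug doses (not always all listed) in √10 steps. After 5 days, nuclei were counted on 4× images. Relative viability is treated-well nuclei count divided by vehicle-well nuclei count, and values are medians of duplicate plates.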

Zosuquidar + Pictilisib = compound: O[C@@H](COc1cccc2ncccc12)CN1CCN([C@@H]2c3ccccc3[C@@H]3[C@H](c4ccccc42)C3(F)F)CC1 [Zosuquidar] + CS(=O)(=O)N1CCN(Cc2cc3nc(-c4cccc5[nH]ncc45)nc(N4CCOCC4)c3s2)CC1 [Pictilisib] (partner 1 µM)
Method in brief: as §1

[1] = compound: COc1cc2nccc(Oc3ccc(NC(=O)C4(C(=O)Nc5ccc(F)cc5)CC4)cc3)c2cc1OC [Cabozantinib] + CS(=O)(=O)N1CCN(Cc2cc3nc(-c4cccc5[nH]ncc45)nc(N4CCOCC4)c3s2)CC1 [Pictilisib] (partner 1 µM)
Method in brief: as §1

Kobe2602 + Decitabine = compound: C1=CC(=CC=C1NC(=S)NNC2=C(C=C(C=C2[N+](=O)[O-])C(F)(F)F)[N+](=O)[O-])F [Kobe2602] + Nc1ncn([C@H]2C[C@H](O)[C@@H](CO)O2)c(=O)n1 [Decitabine] (partner 2 µM)
Method in brief: as §1

Row | Cell Line | relative viability (Kobe2602 + Pictilisib; first compound 0.2 µM) | relative viability (Kobe2602 + Pictilisib; first compound 0.6325 µM) | relative viability (Kobe2602 + Pictilisib; first compound 2 µM) | relative viability (Kobe2602 + Pictilisib; first compound 6.325 µM) | relative viability (Kobe2602 + Pictilisib; first compound 20 µM) | relative viability (Zosuquidar + Pictilisib; first compound 0.01 µM) | relative viability (Zosuquidar + Pictilisib; first compound 0.03162 µM) | relative viability (Zosuquidar + Pictilisib; first compound 0.1 µM) | relative viability (Zosuquidar + Pictilisib; first compound 0.3162 µM) | relative viability (Zosuquidar + Pictilisib; first compound 1 µM) | relative viability ([1]; first compound 0.02 µM) | relative viability ([1]; first compound 0.06325 µM) | relative viability ([1]; first compound 0.2 µM) | relative viability ([1]; first compound 0.6325 µM) | relative viability ([1]; first compound 2 µM) | relative viability (Kobe2602 + Decitabine; first compound 0.2 µM) | relative viability (Kobe2602 + Decitabine; first compound 0.6325 µM) | relative viability (Kobe2602 + Decitabine; first compound 2 µM) | relative viability (Kobe2602 + Decitabine; first compound 6.325 µM) | relative viability (Kobe2602 + Decitabine; first compound 20 µM)
1 | NCI-H2126 | 0.508 | 0.508 | 0.485 | 0.475 | 0.492 | 0.479 | 0.505 | 0.404 | 0.494 | 0.539 | 0.442 | 0.52 | 0.465 | 0.544 | 0.547 | 0.675 | 0.576 | 0.551 | 0.619 | 0.577
2 | LXF-289 | 0.82 | 0.814 | 0.693 | 0.862 | 0.799 | 0.767 | 0.776 | 0.747 | 0.818 | 0.781 | 0.74 | 0.727 | 0.783 | 0.69 | 0.693 | 0.387 | 0.432 | 0.386 | 0.381 | 0.378
3 | BEN | 0.607 | 0.581 | 0.733 | 0.523 | 0.645 | 0.665 | 0.606 | 0.482 | 0.534 | 0.515 | 0.58 | 0.632 | 0.576 | 0.601 | 0.458 | 0.707 | 0.734 | 0.709 | 0.711 | 0.92
4 | LCLC-97TM1 | 0.195 | 0.18 | 0.185 | 0.15 | 0.167 | 0.203 | 0.219 |  | 0.192 | 0.226 |  | 0.2 | 0.152 | 0.296 | 0.32 | 0.234 | 0.229 |  | 0.242 | 0.28
5 | NCI-H1993 | 0.649 | 0.807 | 0.861 | 0.893 | 0.785 | 0.766 | 0.913 | 0.804 | 0.875 | 0.644 | 0.842 | 0.804 | 0.987 | 0.811 | 0.878 | 0.598 | 0.583 | 0.537 | 0.535 | 0.593
6 | A549 |  | 0.476 | 0.487 | 0.524 | 0.514 | 0.532 | 0.497 | 0.494 | 0.487 | 0.496 | 0.572 | 0.57 | 0.502 | 0.514 | 0.379 | 0.228 | 0.266 | 0.414 | 0.251 | 0.247
7 | NCI-H596 | 0.222 | 0.432 | 0.395 | 0.403 | 0.422 | 0.439 | 0.432 | 0.36 | 0.401 | 0.414 | 0.389 | 0.408 | 0.388 | 0.27 | 0.374 | 1.03 | 1.03 | 1.07 | 1.12 | 1.23
8 | LCLC-103H | 0.596 | 0.696 | 0.62 | 0.618 | 0.638 | 0.541 | 0.569 | 0.542 | 0.607 | 0.737 | 0.524 | 0.622 | 0.58 | 0.606 | 0.528 | 0.744 | 0.703 | 0.79 | 0.778 | 0.718
9 | HCC-78 | 0.246 | 0.255 |  | 0.212 | 0.211 | 0.211 | 0.235 |  | 0.232 | 0.402 | 0.178 | 0.228 | 0.174 | 0.177 | 0.192 | 0.65 | 0.711 | 0.6 | 0.724 | 0.727
10 | NCI-H1975 | 0.279 | 0.276 | 0.277 | 0.256 | 0.299 | 0.289 | 0.269 | 0.292 | 0.332 | 0.288 | 0.28 | 0.322 | 0.297 | 0.303 | 0.337 | 0.402 | 0.427 | 0.419 | 0.379 | 0.4
